Patent US10494404B2, “Quinolinium conjugates of cyclosporin” (priority 2014, dated 2019)

Legend:
[1] = system: DIV 8-9 rat cortical neurons; test: Mitochondrial functional parameters in DIV 8-9 rat cultured cortical neurons; assay type: cell-based; details: Compound 1 up to 200 nM, CsA up to 1 μM
Description: The minimum value after the addition of compound (prior to the addition of FCCP) was taken, and this was expressed as a % (using baseline as 100% and FCCP as 0%), and then normalized to DMSO (100%). Significance was assessed by one-way ANOVA, in comparison to DMSO control.
Freshly isolated mitochondria were resuspended in MSK buffer (containing 10 mM glutamate and 2 mM malate) at 1 mg/ml and plated in opaque white 96 well plates, or for neuronal assays, neurons were used 9 days after plating at 15000 cells/well. Drugs were added at the concentrations specified, and for mitochondrial assays were incubated for ten minutes before addition of ADP (5 mM), followed by another 45 minutes. For neuronal assays, drugs were added in neurobasal medium and incubated for 60 minutes. Cell Titer Glo reagent was then added, and the plate shaken for 2 minutes in the dark to lyse cells/mitochondria and release ATP. The plates were incubated a further ten minutes and then luminescence values read using an Optima FluoStar.

HepG2 cells = test: HepG2 high content screening of cell health markers; assay type: cell-based; details: HepG2, 72 h exposure
Description: HepG2 cells were plated on 96-well tissue culture treated black walled clear bottomed polystyrene plates, 100 μL, (3000 cells) per well. After 24 hours the cells were dosed with the test compounds at a range of concentrations. At the end of the incubation period, the cells were loaded with the relevant dye/antibody for each cell health markers set out below. The plates were then scanned using an automated fluorescent cellular imager [ArrayScan VTI (Thermo Scientific Cellomics)].
The following cell health markers were measured: • a. Cell count—a decreasing number of cells per well indicates toxicity due to necrosis, apoptosis or a reduction in cellular proliferation. • b. Nuclear area—an increase in nuclear size indicates necrosis or G2 cell cycle arrest and a decrease indicates apoptosis. • c. DNA structure—an increase in DNA structure indicates chromosomal instability and DNA fragmentation. • d. […]
HepG2 cells were seeded in black, clear-bottom 96-well tissue culture plates at a density of 3000 cells per well. […] Cell count, nuclear size and DNA structure were also measured Hoechst 33342 (Life Technologies). Following staining of the HepG2 cells fluorescence was analyzed by image acquisition with a Thermo Fisher Cellomics® ArrayScanVTI High Content Screening Reader (ThermoFisher Scientific Inc., Waltham, Mass.) and vHCS™ view software (ThermoFisher Scientific Inc.). […]

[2] = system: T cell proliferative response in the draining auricular lymph node; test: Oxazolone contact hypersensitivity model, in vivo T cell proliferation; set-up: species or system mouse
Description: To identify non-immunosuppressive doses of potential neuroprotective compounds for use in models of MS (Al-Izki et al, 2014) we employed a model using epicutaneous application of the ear skin sensitizer, oxazolone, to induce a T cell proliferative response in the draining auricular lymph node peaking 3 days later (Baker et al, 2011).
The contact sensitiser 4-ethoxymethylene-2-phenyl-2-oxazolin-5-one (oxazolone, OX, Sigma) was dissolved (25 mg/ml) in 4:1 acetone:olive oil (AOO). Mice (n=3 per group) received epicutaneous application of either 25 μl of 2.5% OX or AOO on the dorsum of the ear on day 0 (O'Neill et al, 1992). The draining auricular lymph nodes were removed three days later and the induced proliferative response was assessed as previously described. Briefly, 5×10^5 cells per well were cultured in RPMI-1640 medium with glutamate (Gibco®, Invitrogen Ltd, Paisley UK), supplemented with 0.5 mM sodium, in round-bottomed 96 well plates overnight at 37° C. in a humidified atmosphere of 5% CO2. In the presence of 1 μCi^3H-thymidine (PerkinElmer, Mass., USA) per well. […] Results are expressed as mean±SEM thymidine incorporation counts per minute (CPM)

Compound: CC[C@@H]1NC(=O)[C@H]([C@H](O)[C@H](C)C/C=C/CCC[n+]2cccc3ccccc32)N(C)C(=O)[C@H](C(C)C)N(C)C(=O)[C@H](CC(C)C)N(C)C(=O)[C@H](CC(C)C)N(C)C(=O)[C@@H](C)NC(=O)[C@H](C)NC(=O)[C@H](CC(C)C)N(C)C(=O)[C@H](C(C)C)NC(=O)[C@H](CC(C)C)N(C)C(=O)CN(C)C1=O [Compound 1, [Gly-(1S,2R,E)-8-quinolinium-1-hydroxy-2-methyloct-4-ene]^1 CsA]
- mitochondrial membrane potential ([1]; TMRM): Neither mitochondrial membrane potential (FIG. 4A,B), oxygen consumption (FIG. 4C, D) and ATP production (FIG. 4E, F) were affected
- ATP levels / ATP production ([1]; luciferase assay): Neither mitochondrial membrane potential (FIG. 4A,B), oxygen consumption (FIG. 4C, D) and ATP production (FIG. 4E, F) were affected
- toxicity (cell health markers) compared with unmodified CsA (HepG2 cells): significantly reduced the toxicity of cyclosporin
- effect on T cell response ([2]; daily 0.1 mg/kg i.p.): had no effect
- effect on T cell response ([2]; daily 1 mg/kg i.p.): had no effect
- effect on T cell response ([2]; daily 10 mg/kg i.p.): inhibited the T cell response
